Test [1] deals with T1, hSTING^H232 (Stimulator of interferon genes) (Homo sapiens, UniProt Q86WV6, H232).
T1 construct: gene STING1
Briefly: SPR (KD […]); also ITC (KD […]), DSF and […] Å co-crystal structure. Type of test: binding.

Test [2] has as its target T2, hSTING^HAQ (Stimulator of interferon genes) (Homo sapiens, UniProt Q86WV6, R71H/G230A/H232R/R293Q).
T2 construct: gene STING1
Briefly: thermal shift (DSF), ΔTm. Type of test: binding.

As a reminder, the Kd is a measure of binding affinity in units of concentration. Lower therefore signals higher affinity.

T1 sequence (Q86WV6 whole entry, change not shown): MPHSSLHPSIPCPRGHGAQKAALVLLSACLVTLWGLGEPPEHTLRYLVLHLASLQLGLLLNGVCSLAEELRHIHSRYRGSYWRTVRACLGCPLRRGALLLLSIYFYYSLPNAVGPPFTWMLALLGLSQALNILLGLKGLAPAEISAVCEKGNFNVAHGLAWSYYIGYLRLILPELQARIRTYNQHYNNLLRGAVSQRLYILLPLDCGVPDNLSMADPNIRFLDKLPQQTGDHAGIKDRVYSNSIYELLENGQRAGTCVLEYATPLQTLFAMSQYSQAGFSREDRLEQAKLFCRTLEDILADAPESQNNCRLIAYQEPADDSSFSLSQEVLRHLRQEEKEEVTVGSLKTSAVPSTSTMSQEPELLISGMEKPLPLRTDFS
T2 sequence (Q86WV6 whole entry R71H/G230A/H232R/R293Q): as the sequence (Q86WV6 whole entry, change not shown) above, with R71H, G230A, H232R, R293Q counted along it

In the case of `COc1cc2[se]c(C(=O)CCC(=O)O)cc2cc1OCCCOc1cc2cc(C(=O)CCC(=O)O)[se]c2cc1OC` [diBSP01], the dissociation constant Kd in test [1] turned out to be 49 nM. In addition, the “thermal shift (DSF), ΔTm” value in test [2] was 27.0 °C.

The record behind these values is publication PMC10094158, “Discovery of a photoactivatable dimerized STING agonist based on the benzo[b]selenophene scaffold” (Chemical Science, 2023).
